These results are taken from paper PMC4344250, “Characterization of the Major Light-Harvesting Complexes (LHCBM) of the Green Alga Chlamydomonas reinhardtii” (PLoS ONE, 2015).

Test [1] deals with T1, LHCBM1 (Chlamydomonas reinhardtii, UniProt Q93VE0).
T1 construct: gene LhcII-4
Briefly: in vitro reconstitution, Ni-affinity and sucrose gradient, HPLC of bound pigments. Type of test: binding. The settings on record: C. reinhardtii pigment mix, measured only as Neo+loro sum.

In test [2] the target is T2, LHCBM9 (Chlamydomonas reinhardtii, UniProt Q8S3T9). The description is as above. The format is binding. To be noted: C. reinhardtii pigment mix; measured only as Neo+loro sum.
Test [3] addresses T2, LHCBM9. Described as above. The settings on record: C. reinhardtii pigment mix, Chl a/b 2.5; stoichiometry, not an affinity. The format is binding. The text has this: in vitro reconstitution, Ni-affinity and sucrose gradient, HPLC of bound pigments on LHCBM9
The next test has as its target T3, LHCBM5 (Chlamydomonas reinhardtii, UniProt Q9ZSJ4).
T3 construct: gene Lhcb3
Described as above. The format is binding. To be noted: C. reinhardtii pigment mix, Chl a/b 2.5; stoichiometry, not an affinity. The text has this: in vitro reconstitution, Ni-affinity and sucrose gradient, HPLC of bound pigments on LHCBM5

Test [4] concerns the target T1, LHCBM1. The test is described as above. Type of test: binding. The settings on record: C. reinhardtii pigment mix, Chl a/b 2.5, stoichiometry, not an affinity. The text has this: in vitro reconstitution, Ni-affinity and sucrose gradient, HPLC of bound pigments on LHCBM1
The next test addresses T4, LHCBM2 (Chlamydomonas reinhardtii, UniProt Q93WE0).
T4 construct: gene LhcII-3
The test is described as above. The format is binding. The settings on record: C. reinhardtii pigment mix, Chl a/b 2.5; stoichiometry, not an affinity. The source says:
in vitro reconstitution, Ni-affinity and sucrose gradient, HPLC of bound pigments on LHCBM2

Another test deals with T5, LHCBM6 (Chlamydomonas reinhardtii, UniProt A8J287).
T5 construct: gene CHLRE_06g285250v5
The description is as above. Type of test: binding. To be noted: C. reinhardtii pigment mix, Chl a/b 2.5; stoichiometry, not an affinity. The text has this: in vitro reconstitution, Ni-affinity and sucrose gradient, HPLC of bound pigments on LHCBM6

For test [5], the target named is LHCBM2/7 (type III major light-harvesting complex protein of Chlamydomonas reinhardtii) (Chlamydomonas reinhardtii). Briefly: sucrose density gradient ultracentrifugation + non-denaturing isoelectrofocusing (composition by SDS-PAGE); thylakoids solubilised with alpha-DM; trimeric band (B3) of the sucrose gradient separated by flat-bed ndIEF (ampholites pH 3.5-5, 0.06% beta-DM, 4 °C, 15 h); fractions run again as single bands on sucrose gradients (0.06% beta-DM, 20 mM Hepes pH 7.5); proteins identified by Tricine SDS-PAGE.

T2 sequence (Q8S3T9 entry or part of it): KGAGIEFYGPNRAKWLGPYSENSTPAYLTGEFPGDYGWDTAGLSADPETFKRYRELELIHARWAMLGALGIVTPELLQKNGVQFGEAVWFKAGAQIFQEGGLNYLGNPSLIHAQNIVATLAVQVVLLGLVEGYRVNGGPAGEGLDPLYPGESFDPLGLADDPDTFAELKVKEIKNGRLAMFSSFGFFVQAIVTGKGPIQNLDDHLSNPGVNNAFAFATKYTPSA
T1 sequence (Q93VE0 entry or part of it): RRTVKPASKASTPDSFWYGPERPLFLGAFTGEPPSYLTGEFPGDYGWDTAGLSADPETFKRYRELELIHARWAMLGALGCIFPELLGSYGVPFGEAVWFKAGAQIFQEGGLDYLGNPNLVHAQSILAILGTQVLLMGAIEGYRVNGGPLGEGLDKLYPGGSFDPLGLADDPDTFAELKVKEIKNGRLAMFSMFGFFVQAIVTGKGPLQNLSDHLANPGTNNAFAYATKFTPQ
T5 sequence (A8J287 entry or part of it): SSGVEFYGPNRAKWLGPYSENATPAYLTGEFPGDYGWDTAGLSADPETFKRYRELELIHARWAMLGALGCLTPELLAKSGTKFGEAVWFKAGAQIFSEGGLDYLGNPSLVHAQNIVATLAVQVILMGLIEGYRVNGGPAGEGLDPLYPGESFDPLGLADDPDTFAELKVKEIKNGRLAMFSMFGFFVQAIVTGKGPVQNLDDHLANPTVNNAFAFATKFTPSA
T3 sequence (Q9ZSJ4 entry or part of it): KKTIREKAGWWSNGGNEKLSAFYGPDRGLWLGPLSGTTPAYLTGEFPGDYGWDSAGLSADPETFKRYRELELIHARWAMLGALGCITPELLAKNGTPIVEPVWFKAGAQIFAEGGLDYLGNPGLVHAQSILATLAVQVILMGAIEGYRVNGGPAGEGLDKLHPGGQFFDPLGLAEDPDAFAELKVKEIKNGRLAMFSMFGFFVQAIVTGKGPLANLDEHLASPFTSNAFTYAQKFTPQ
T4 sequence (Q93WE0 entry or part of it): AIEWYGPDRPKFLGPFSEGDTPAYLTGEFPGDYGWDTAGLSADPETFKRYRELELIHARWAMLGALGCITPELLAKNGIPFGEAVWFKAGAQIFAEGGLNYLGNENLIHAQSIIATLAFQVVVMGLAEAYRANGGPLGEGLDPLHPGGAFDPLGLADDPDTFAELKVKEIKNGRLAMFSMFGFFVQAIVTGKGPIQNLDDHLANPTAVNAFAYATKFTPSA

For `CC1=C[C@H](O)CC(C)(C)[C@H]1/C=C/C(C)=C/C=C/C(C)=C/C=C/C=C(C)/C=C/C=C(/C=C/C1=C(C)C[C@@H](O)CC1(C)C)CO` [loroxanthin], the “in vitro reconstitution, Ni-affinity and sucrose gradient, HPLC of bound pigment” value at LHCBM1 [1] (internal carotenoid site (L1 proposed)) was “All LHCBMs contain lutein, loroxanthin and neoxanthin and a small amount of violaxanthin”; on LHCBM9 [2] it was “All LHCBMs contain lutein, loroxanthin and neoxanthin and a small amount of violaxanthin”.

`CC1=C[C@H](O)CC(C)(C)[C@H]1/C=C/C(C)=C/C=C/C(C)=C/C=C/C=C(C)/C=C/C=C(C)/C=C/C1=C(C)C[C@@H](O)CC1(C)C` [lutein]: the Lut/mon at LHCBM9 [3] was 1.19±0.06 mol per monomer (normalised to 14 Chls); on LHCBM5, 1.38±0.01 mol per monomer (normalised to 14 Chls); on LHCBM1 [4] it was 1.32±0.01 mol per monomer (normalised to 14 Chls); on LHCBM2, 1.43±0.04 mol per monomer (normalised to 14 Chls); at LHCBM6 it was 1.25±0.01 mol per monomer (normalised to 14 Chls).

Take `CC(=C/C=C/C(C)=C/C=C/C=C(C)/C=C/C=C(\C)C=C=C1C(C)(C)C[C@H](O)C[C@@]1(C)O)/C=C/[C@@]12O[C@]1(C)C[C@@H](O)CC2(C)C` [neoxanthin]: the “in vitro reconstitution, Ni-affinity and sucrose gradient, HPLC of bound pigment” value at LHCBM1 [1] (N1 site suggested) was “All LHCBMs contain lutein, loroxanthin and neoxanthin and a small amount of violaxanthin”.

As to `CC(/C=C/C=C(C)/C=C/[C@@]12O[C@]1(C)C[C@@H](O)CC2(C)C)=C\C=C\C=C(C)\C=C\C=C(C)\C=C\[C@@]12O[C@]1(C)C[C@@H](O)CC2(C)C` [violaxanthin], the Vio/mon is on record as 0.24±0.01 mol per monomer (normalised to 14 Chls) at LHCBM9 [3] and 0.11±0.01 mol per monomer (normalised to 14 Chls) on LHCBM1 [4] (V1 site suggested).

Turning to “LHCBM2/7 (type III major light-harvesting complex protein of Chlamydomonas reinhardtii) (natural protein)”, the stoichiometry N – broadly, the number of molecules, sites or subunits per partner or assembly – in test [5] was found to be 3.
